Test results from patent US6525001B1, “Substituted pyrimidine and pyridine herbicides” (Mid-American Commercialization Corporation, priority 1997, dated 2003).

Columns and labels:
Format in all cases: in vivo
[1] = tested on: arrowleaf sida (Sida rhombifolia); experiment: Test C; design: key: 0 was no effect; 100 was complete control; conditions: PREEMERGENCE
[2] = tested on: large crabgrass (Digitaria sanguinalis); experiment: Test C; design: key: 0 was no effect; 100 was complete control; conditions: PREEMERGENCE
[3] = tested on: common groundsel (Senecio vulgaris); experiment: Test E pre-/postemergence/post directed; design: key: 0 is no effect; 100 is complete control; conditions: PREEMERGENCE
Source text: (§1) Seeds, tubers, or plant parts of alexandergrass (Brachiaria plantaginea), annual bluegrass (Poa annua), arrowleaf sida (Sida rhombifolia), barnyardgrass (Echinochloa crus-galli), bermudagrass (Cynodon dactylon), citrus (Citrus sinensis), common chickweed (Stellaria media), common purslane (Portulaca oleracea), common ragweed (Ambrosia elatior), common groundsel (Senecio vulgaris), dallisgrass (Paspalum dilatatum), goosegrass (Eleusine indica), green foxtail (Setaria viridis), guineagrass (Panicum maximum), itchgrass (Rottboellia exaltata), johnson grass (Sorghum halepense), kochia (Kochia scoparia), large crabgrass (Digitaria sanguinalis), leafy spurge (Euphorbia esula), pitted morningglory (Ipomoea lacunosa), purple nutsedge (Cyperus rotundus), quackgrass (Agropyron repens), Russian thistle (Salsola kali), sandbur (Cenchrus echinatus), sourgrass (Trichachne insularis), Spanishneedles (Bidens bipinnata), sugarcane (Saccharum officinarum), surinam grass (Brachiaria decumbens) and tall mallow (Malva sylvestris) were planted into greenhouse pots of flats containing greenhouse planting medium. Plant species were grown grown in separate pots or individual compartments. Preemergence applications were made within one day of planting the seed or plant part. Postemergence applications were applied when the plants were in the two to four leaf stage (three to twenty cm).
(§2) Test chemicals were formulated in a non-phytotoxic solvent mixture which included a surfactant and applied preemergence to the soil surface, postemergence to the plants or as a post directed spray to plants and soil at the base of the target species. Untreated control plants and treated plants were placed in the greenhouse and visually evaluated for injury 13 to 21 days after herbicide application. Plant response ratings, summarized in Table E, are based on a 0 to 100 scale where 0 is no injury and 100 is complete control. A dash (−) response means no test result.

[4] = tested on: common purslane (Portulaca oleracea); experiment: Test E pre-/postemergence/post directed; design: key: 0 is no effect; 100 is complete control
Source text: as §1, §2

[5] = tested on: common ragweed (Ambrosia elatior); experiment: Test E pre-/postemergence/post directed; design: key: 0 is no effect; 100 is complete control; conditions: PREEMERGENCE
Source text: as §1, §2

[6] = tested on: dallisgrass (Paspalum dilatatum); experiment: Test E pre-/postemergence/post directed; design: key: 0 is no effect; 100 is complete control
Source text: as §1, §2

[7] = tested on: goosegrass (Eleusine indica); experiment: Test E pre-/postemergence/post directed; design: key: 0 is no effect; 100 is complete control
Source text: as §1, §2

[8] = tested on: guineagrass (Panicum maximum); experiment: Test E pre-/postemergence/post directed; design: key: 0 is no effect; 100 is complete control
Source text: as §1, §2

[9] = tested on: large crabgrass (Digitaria sanguinalis); experiment: Test E pre-/postemergence/post directed; design: key: 0 is no effect; 100 is complete control; conditions: PREEMERGENCE
Source text: as §1, §2

[10] = tested on: sourgrass (Trichachne insularis); experiment: Test E pre-/postemergence/post directed; design: key: 0 is no effect; 100 is complete control
Source text: as §1, §2

[11] = tested on: surinam grass (Brachiaria decumbens); experiment: Test E pre-/postemergence/post directed; design: key: 0 is no effect; 100 is complete control; conditions: PREEMERGENCE
Source text: as §1, §2

[12] = tested on: tall mallow (Malva sylvestris); experiment: Test E pre-/postemergence/post directed; design: key: 0 is no effect; 100 is complete control; conditions: PREEMERGENCE
Source text: as §1, §2

Cc1cnc(-c2ccc(C(F)(F)F)cc2)nc1Cc1cccc(OC(F)(F)F)c1 [Compound 15]
20: Plant response rating, Goosegrass ([7]; POSTEMERGENCE, Rate 125 g/ha) | Plant response rating, Guineagrass ([8]; POSTEMERGENCE, Rate 125 g/ha) | Plant response rating, Sourgrass ([10]; POSTEMERGENCE, Rate 125 g/ha)
100: Plant response rating, Large crabgrass ([2]; Rate 35 g/ha) | Plant response rating, Large crabgrass ([2]; Rate 70 g/ha) | Plant response rating, Large crabgrass ([2]; Rate 140 g/ha) | Plant response rating, Com. groundsel ([3]; Rate 32 g/ha) | Plant response rating, Com. groundsel ([3]; Rate 125 g/ha) | Plant response rating, Com. groundsel ([3]; Rate 250 g/ha) | Plant response rating, Com. purslane ([4]; PREEMERGENCE, Rate 32 g/ha) | Plant response rating, Com. purslane ([4]; PREEMERGENCE, Rate 64 g/ha) | Plant response rating, Com. purslane ([4]; PREEMERGENCE, Rate 125 g/ha) | Plant response rating, Com. purslane ([4]; PREEMERGENCE, Rate 250 g/ha) | Plant response rating, Com. ragweed ([5]; Rate 32 g/ha) | Plant response rating, Com. ragweed ([5]; Rate 64 g/ha) | Plant response rating, Com. ragweed ([5]; Rate 250 g/ha) | Plant response rating, Dallisgrass ([6]; PREEMERGENCE, Rate 64 g/ha) | Plant response rating, Dallisgrass ([6]; PREEMERGENCE, Rate 125 g/ha) | Plant response rating, Dallisgrass ([6]; PREEMERGENCE, Rate 250 g/ha) | Plant response rating, Goosegrass ([7]; PREEMERGENCE, Rate 250 g/ha) | Plant response rating, Guineagrass ([8]; PREEMERGENCE, Rate 64 g/ha) | Plant response rating, Guineagrass ([8]; PREEMERGENCE, Rate 125 g/ha) | Plant response rating, Guineagrass ([8]; PREEMERGENCE, Rate 250 g/ha) | Plant response rating, Large crabgrass ([9]; Rate 64 g/ha) | Plant response rating, Large crabgrass ([9]; Rate 125 g/ha) | Plant response rating, Large crabgrass ([9]; Rate 250 g/ha) | Plant response rating, Sourgrass ([10]; PREEMERGENCE, Rate 32 g/ha) | Plant response rating, Sourgrass ([10]; PREEMERGENCE, Rate 64 g/ha) | Plant response rating, Sourgrass ([10]; PREEMERGENCE, Rate 125 g/ha) | Plant response rating, Sourgrass ([10]; PREEMERGENCE, Rate 250 g/ha) | Plant response rating, Surinam grass ([11]; Rate 125 g/ha) | Plant response rating, Surinam grass ([11]; Rate 250 g/ha) | Plant response rating, Tall Mallow ([12]; Rate 64 g/ha) | Plant response rating, Tall Mallow ([12]; Rate 125 g/ha)
50: Plant response rating, Dallisgrass ([6]; POSTEMERGENCE, Rate 250 g/ha)
25: Plant response rating, Sourgrass ([10]; POSTEMERGENCE, Rate 250 g/ha)
95: Plant response rating, Dallisgrass ([6]; PREEMERGENCE, Rate 32 g/ha)
98: Plant response rating, Goosegrass ([7]; PREEMERGENCE, Rate 32 g/ha) | Plant response rating, Goosegrass ([7]; PREEMERGENCE, Rate 64 g/ha) | Plant response rating, Goosegrass ([7]; PREEMERGENCE, Rate 125 g/ha) | Plant response rating, Tall Mallow ([12]; Rate 32 g/ha) | Plant response rating, Tall Mallow ([12]; Rate 250 g/ha)
30: Plant response rating, Goosegrass ([7]; POSTEMERGENCE, Rate 250 g/ha)
90: Plant response rating, Guineagrass ([8]; PREEMERGENCE, Rate 32 g/ha)
75: Plant response rating, Com. purslane ([4]; POSTEMERGENCE, Rate 125 g/ha)
40: Plant response rating, Guineagrass ([8]; POSTEMERGENCE, Rate 250 g/ha)
80: Plant response rating, Arrowleaf sida ([1]; Rate 35 g/ha) | Plant response rating, Com. purslane ([4]; POSTEMERGENCE, Rate 250 g/ha)
5: Plant response rating, Dallisgrass ([6]; POSTEMERGENCE, Rate 125 g/ha)
85: Plant response rating, Arrowleaf sida ([1]; Rate 70 g/ha) | Plant response rating, Arrowleaf sida ([1]; Rate 140 g/ha)

Cc1cnc(-n2ccc(C(F)(F)F)n2)nc1Cc1cccc(OC(F)(F)F)c1 [Compound 42]
98: Plant response rating, Goosegrass ([7]; PREEMERGENCE, Rate 32 g/ha) | Plant response rating, Tall Mallow ([12]; Rate 32 g/ha) | Plant response rating, Tall Mallow ([12]; Rate 64 g/ha) | Plant response rating, Tall Mallow ([12]; Rate 125 g/ha)
70: Plant response rating, Dallisgrass ([6]; PREEMERGENCE, Rate 32 g/ha)
100: Plant response rating, Arrowleaf sida ([1]; Rate 140 g/ha) | Plant response rating, Large crabgrass ([2]; Rate 70 g/ha) | Plant response rating, Large crabgrass ([2]; Rate 140 g/ha) | Plant response rating, Com. groundsel ([3]; Rate 64 g/ha) | Plant response rating, Com. groundsel ([3]; Rate 125 g/ha) | Plant response rating, Com. groundsel ([3]; Rate 250 g/ha) | Plant response rating, Com. purslane ([4]; PREEMERGENCE, Rate 32 g/ha) | Plant response rating, Com. purslane ([4]; PREEMERGENCE, Rate 64 g/ha) | Plant response rating, Com. purslane ([4]; PREEMERGENCE, Rate 125 g/ha) | Plant response rating, Com. purslane ([4]; PREEMERGENCE, Rate 250 g/ha) | Plant response rating, Dallisgrass ([6]; PREEMERGENCE, Rate 125 g/ha) | Plant response rating, Dallisgrass ([6]; PREEMERGENCE, Rate 250 g/ha) | Plant response rating, Goosegrass ([7]; PREEMERGENCE, Rate 64 g/ha) | Plant response rating, Goosegrass ([7]; PREEMERGENCE, Rate 125 g/ha) | Plant response rating, Goosegrass ([7]; PREEMERGENCE, Rate 250 g/ha) | Plant response rating, Guineagrass ([8]; PREEMERGENCE, Rate 125 g/ha) | Plant response rating, Guineagrass ([8]; PREEMERGENCE, Rate 250 g/ha) | Plant response rating, Large crabgrass ([9]; Rate 125 g/ha) | Plant response rating, Large crabgrass ([9]; Rate 250 g/ha) | Plant response rating, Sourgrass ([10]; PREEMERGENCE, Rate 32 g/ha) | Plant response rating, Sourgrass ([10]; PREEMERGENCE, Rate 64 g/ha) | Plant response rating, Sourgrass ([10]; PREEMERGENCE, Rate 125 g/ha) | Plant response rating, Sourgrass ([10]; PREEMERGENCE, Rate 250 g/ha) | Plant response rating, Surinam grass ([11]; Rate 125 g/ha) | Plant response rating, Surinam grass ([11]; Rate 250 g/ha) | Plant response rating, Tall Mallow ([12]; Rate 250 g/ha)
95: Plant response rating, Arrowleaf sida ([1]; Rate 35 g/ha) | Plant response rating, Arrowleaf sida ([1]; Rate 70 g/ha) | Plant response rating, Dallisgrass ([6]; PREEMERGENCE, Rate 64 g/ha) | Plant response rating, Guineagrass ([8]; PREEMERGENCE, Rate 32 g/ha) | Plant response rating, Guineagrass ([8]; PREEMERGENCE, Rate 64 g/ha)
80: Plant response rating, Large crabgrass ([2]; Rate 35 g/ha)
